{"source": "patent US20160223559A1", "about": "“TETRAZINE-CONTAINING COMPOUNDS AND SYNTHETIC METHODS THEREOF” (The Regents of the University of California, priority 2015, published 2016)", "key": {"[1]": {"assay": "Solubility in DMF:PBS during kinetic measurement", "type": "physicochemical", "conditions": "DMF:PBS at DMF concentrations lower than 80%", "description": "FIGS. 3A-3B. (E)-3-substituted-6-styryl-s-tetrazine reaction kinetics. FIG. 3A: Reaction scheme of (E)-cyclooct-4-enol and the series of tetrazines for kinetic characterization. Only one isomer is depicted for 15. FIG. 3B: Tetrazine kinetics were determined by reacting 1 mM tetrazine with an excess (10 mM) of (E)-cyclooct-4-enol in 50% DMF, 50% PBS 1×pH 7.4 buffer at 22° C. Second-order rate constants derived from the data are listed, and the corresponding curves for 2b, 2p, and 11 are shown in FIG. 4A. Tetrazine 2p was reacted in 80% DMF, 20% PBS due to its insolubility at lower DMF concentrations.\nA NANODROP™ 2000c (Thermo Scientific) equipped with a cuvette reader and a stirrer was used in the kinetic measurements, and the disappearance of the tetrazine peak absorption around 520 nm was measured over time. Tetrazines at 1 mM were reacted with an excess 10 mM (E)-cyclooct-4-enol with the measurements commencing immediately upon (E)-cyclooct-4-enol addition (FIGS. 3A, 4A-4B). Solution conditions were maintained at 1:1 DMF:PBS pH 7.4 buffer (Sigma Life Science), and all the measurements were done at 22° C. room temperature. Tetrazine peak intensity at each time point was adjusted for background by extrapolation, as in the previous section. Tetrazine peak disappearance is shown as points in FIGS. 4A-4B, with the connecting lines resulting from the nonlinear fits made with Prism 6.0c. […]"}, "[2]": {"assay": "Fluorescence assays: fluorogenic turn-on reaction with dienophiles", "type": "physicochemical", "conditions": "PBS pH 7.4, excitation at 480 nm", "description": "All compounds were purified by HPLC and verified by LC-MS prior to quantitative activation experiments. Stock solutions in methanol were diluted into 1.5 mL of the appropriate solvent in a 1 cm×1 cm quartz cuvette. Measurements of solvent and pre-activation emission spectra for baseline values were made in at least triplicate, prior to addition of trans-cyclooctenol or cyclopropene 4 to initiate the fluorogenic reaction. 3-fold additional excess of trans-cyclooctenol and cyclopropene 4 were added for each fluorogenic reaction. Activation ratios were calculated from the peak emission intensity of the reaction product and the corresponding baseline intensity, and all the intensity data was background subtracted. Integration of the area under the emission intensity curves was used to validate the activation ratios.\nFluorescence emission of 2v, 5, 6 are depicted in FIG. 1A. All three compounds were dissolved in 2 μM phosphate-buffered saline (PBS) at pH 7.4. FIG. 5A depicts fluorescence emission of 2v in 2 μM phosphate-buffered saline (PBS) at pH 7.4. FIG. 5B depicts fluorescence emission of 2w, 7, 8. All three compounds were dissolved in 2 μM EtOH solution. […] FIG. 5C depicts fluorescence emission of 2w in 2 μM EtOH solution. FIG. 5D depicts fluorescence emission of 2x, 9, 10. […] FIG. 5E depicts fluorescence emission of 2x in 2 μM EtOH solution."}, "[3]": {"tested_on": "A33 antigens on live LS174T human colon carcinoma cells", "assay": "Live-cell imaging of TCO-antibody pretargeted cells", "type": "cell-based", "conditions": "5 μM probe, 30 minutes", "description": "FIGS 1A-1D. Depicted in FIG. 1A are fluorescence emission spectra for compound 2v (lowest line) and compound 5 (middle line) and 6 (upper line) in PBS; excitation at 480 nm. FIG. 1B: Figure depicts equimolar solutions of compound 6 and 2v under excitation by a handheld UV lamp. FIGS. 1C-1D: Figures depict Live-cell imaging of LS174T cells. FIG. 1C: Cells were incubated (t=1 h) with 200 nM TCO-conjugated A33 antibodies, washed, and then imaged 30 minutes after the addition of 5 μM 2v. FIG. 1D: Cells lacking TCO were treated with 5 μM 2v for 30 minutes. Scale bar=[…] for both FIGS. 1C and 1D.\nCell culture and labeling. LS174T cells were grown in DMEM media supplemented with 10% fetal bovine serum, 1% L-glutamine, 1% penicillin/streptomycin. Cells were incubated in 5.0% carbon dioxide, 95% humidity at 37° C. The cells were grown in a T-75 tissue culture flask and seeded on a Lab-Tek II chamber slide two days prior to the experiment. A33 antibody (R&D Systems, MN) was modified by incubation with 50 equivalents of trans-cyclooctene NHS ester for 2 hours at room temperature. The A33 antibody was washed three times with 0.1M sodium bicarbonate buffer pH 8.3 using a 30 kDa spin filter before adding the antibody to the cells at a final concentration of 200 nM for 1 hour.\nImage acquisition. […]"}, "[4]": {"assay": "Storage and solution stability", "type": "physicochemical", "conditions": "stored at −20° C. for several months"}}}
{"smiles": "C(=C\\c1nnc(/C=C/c2ccccc2)nn1)/c1ccccc1", "note": "[Cmpd 2p]", "values": [{"measurement": "solubility", "setting": "[1]", "result": "insolubility"}]}
{"smiles": "Cc1nnc(/C=C/c2ccc(C(=O)O)c(-c3c4cc(F)c(=O)cc-4oc4cc(O)c(F)cc34)c2)nn1", "note": "[Cmpd 2v]", "values": [{"measurement": "increase in fluorescence intensity (turn-on)", "setting": "[2]; after reaction with a TCO", "result": 400, "unit": "fold"}, {"measurement": "increase in fluorescence intensity (turn-on)", "setting": "[2]; after reaction with a cyclopropene", "result": 135, "unit": "fold"}, {"measurement": "background staining", "setting": "[3]; cells lacking targeted dienophile", "result": "negligible background staining"}, {"measurement": "confocal imaging of targeted dienophiles", "setting": "[3]; cells pretargeted with 200 nM TCO-conjugated A33 antibodies", "result": "readily revealed the location of targeted dienophiles"}]}
{"smiles": "Cc1nnc(CCOS(C)(=O)=O)nn1", "note": "[Cmpd 1a]", "values": [{"measurement": "storage stability", "setting": "[4]", "result": "without noticeable decomposition"}]}
